We go through five molecules from patent US10077295B2, “Glycoproteins having lipid mobilizing properties and therapeutic uses thereof” (Aston University, priority 2010, dated 2018).

One assay relates to adipocytes, BAT. The experiment in a line: Expression of ZAG, HSL, UCP in adipose tissue/adipocytes of mice (5 day ZAG study). It is filed as in vivo, mouse. Conditions: ERK inhibitor added with ZAG. On the procedure:
Western Blot Analysis. Freshly excised gastrocnemius muscles were washed in PBS and lysed in PHOSPHOSAFE™ Extraction Reagent for 5 min at room temperature followed by sonication at 4° C. The lysate was cleared by centrifugation at 18,000 g for 5 min at 4° C. and samples of cytosolic protein (5 μg) were resolved on 12% sodium dodecyl sulfate-polyacrylamide gel electrophoresis at 180V for approximately 1 h. This was followed by transference to 0.45 μm nitrocellulose membranes, which were then blocked with 5% Marvel in Tris-buffered saline, pH 7.5, at 4° C. overnight. Both primary and secondary antibodies were used at a dilution of 1:1000 except anti-myosin (1:250). Incubation was for 1 h at room temperature, and development was by ECL. Blots were scanned by a densitometer to quantify differences.
A 5 day study was performed where ZAG was administered at 35 μg per day i.v. on a daily basis for 5 days. At the end of the experiment tissues were removed and blotted, or functional assays were carried out with isolated adipocytes. […] When ep adipocytes were prepared and maintained in tissue culture (RPMI 1640+10% FCS) ZAG expression was maintained for a further 3 days, even though no ZAG was added to the culture medium (FIG. 6B). […] In fact, as discussed above, too much ZAG is more likely to lead to resistance rather than an increased response.

In assay [1] the target is T1, β3-AR (Homo sapiens, UniProt P13945). The assay can be described thus: Cyclic AMP production in CHO-K1 cells transfected with β3-AR. The format is cell-based. Details: host or cells: CHO-K1. Conditions: CHO β3-AR. Here is the method: (§1) Binding Studies and Cyclic AMP Determination. CHO-K1 cells transfected with the human β1- and β2-AR obtained from University of Nottingham, UK, while CHOK1 cells transfected with the β3-AR were obtained from Astra Zeneca, Macclesfield, Cheshire, UK. Gene expression was under the control of hygromycin, together with a β-gal reporter construct, selected for resistance to G418. They were maintained in DMEM supplemented with 2 mM glutamine, hygromycin B ([…]), G418 ([…]), and 10% FCS, under an atmosphere of 10% CO2 in air. To determine the effect of agonists on cyclic AMP production, cells were grown in 24-well plates containing 1 ml of nutrient medium.
T1 sequence (P13945 whole entry): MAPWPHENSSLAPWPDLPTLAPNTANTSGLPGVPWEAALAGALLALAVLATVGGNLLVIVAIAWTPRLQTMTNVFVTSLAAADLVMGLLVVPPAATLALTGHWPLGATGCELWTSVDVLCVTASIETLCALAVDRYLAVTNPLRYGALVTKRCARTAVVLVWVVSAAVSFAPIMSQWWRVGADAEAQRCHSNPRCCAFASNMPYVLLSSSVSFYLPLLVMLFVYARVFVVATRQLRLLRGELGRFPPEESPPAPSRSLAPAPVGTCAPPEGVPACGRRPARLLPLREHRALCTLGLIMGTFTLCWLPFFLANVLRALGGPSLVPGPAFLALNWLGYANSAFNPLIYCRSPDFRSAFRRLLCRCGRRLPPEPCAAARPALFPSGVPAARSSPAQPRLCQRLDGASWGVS

Another assay relates to murine myotubes. The assay can be described thus: Murine myotubes subjected to high glucose: protein degradation, protein synthesis, ROS, pPKR. Conditions: 10 or 25 mM glucose; ZAG 25 μg/ml. The format is cell-based, mouse. Here is the method:
This utilizes murine myotubes subjected to high concentrations of glucose (10 or 25 mM). […] However the SR compound (i.e., SR59230A) can also act as a β-agonist, which it seemed to do in these experiments.
It has been shown that formation of reactive oxygen species (ROS) is important in protein degradation induced by high glucose load. […] High glucose also induces activation (phosphorylation) of PKR (FIG. 22A) and the subsequent phosphorylation of eIF2α (FIG. 22B) as is seen in skeletal muscle of ob/ob mice, which was also attenuated by ZAG.

The target of another assay is T2, human β2-AR (Homo sapiens, UniProt P07550).
T2 construct: host or cells: CHO-K1
T2 sequence (P07550 whole entry): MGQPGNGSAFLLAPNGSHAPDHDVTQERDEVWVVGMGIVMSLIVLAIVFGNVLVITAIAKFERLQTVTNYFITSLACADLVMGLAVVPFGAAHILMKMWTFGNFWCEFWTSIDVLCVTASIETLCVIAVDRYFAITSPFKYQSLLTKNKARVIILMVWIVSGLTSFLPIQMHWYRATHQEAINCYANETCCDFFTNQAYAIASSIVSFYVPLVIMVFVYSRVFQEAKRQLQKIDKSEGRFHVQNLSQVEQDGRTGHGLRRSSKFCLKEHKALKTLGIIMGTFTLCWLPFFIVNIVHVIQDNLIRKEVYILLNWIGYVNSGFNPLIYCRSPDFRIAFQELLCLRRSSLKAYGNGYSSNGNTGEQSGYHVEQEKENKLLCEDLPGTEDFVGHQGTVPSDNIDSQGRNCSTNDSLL
The experiment in a line: Cyclic AMP production in CHO-K1 cells transfected with β2-AR. Conditions: CHO β2-AR, SR59230A 10 μM. The format is cell-based. On the procedure: as §1

Assay [2] relates to rat epididymal adipocytes. The experiment in a line: Lipolytic activity in rat adipocytes. As to conditions: rat epididymal adipocytes. The format is cell-based. On the procedure:
Lipolytic Activity in Rat Adipocytes—White adipocytes were prepared from finely minced epididymal adipose tissue of male Wistar rats (400 g) using collagenase digestion, as described (Beck S A, et al. Production of lipolytic and proteolytic factors by a murine tumor-producing cachexia in the host. Cancer Res 47:5919-5923, 1987). Lipolytic activity was determined by incubating 10^5-2×10^5 adipocytes for 2 h in 1 ml Krebs-Ringer bicarbonate buffer, pH 7.2, and the extent of lipolysis was determined by measuring the glycerol released (Wieland O. Glycerol UV method. Methods of Enzymatic Analysis, edited by Bergmeyer H U. Academic Press, London, pp 1404-1409, 1974). Spontaneous glycerol release was measured by incubating adipocytes alone. Lipolytic activity was expressed as μmol glycerol released/10^5 adipocytes/2 h.

For assay [3], the system named is ob/ob mice. The experiment in a line: Oral (p.o.) administration of rhZAG to ob/ob mice. It is filed as in vivo, mouse. As to conditions: 50 ug ZAG p.o. daily with propranolol. Here is the method:
50 ug per day of rhZAG was administered p.o. to Aston ob/ob mice. Oral dosing was achieved by assuming 5 mL/day consumption of water, and adding ZAG to achieve 50 ug per day dose based on that assumption. No attempt was made to correct for variations of consumption on a given day.
Experiment One (8 Day Oral ZAG Study): 50 ug of ZAG was administered p.o. daily in drinking water.
Experiment Two (8 Day Oral ZAG Plus Propranolol Study): 50 ug of ZAG administered p.o. daily, with and without propranolol. Propanolol blocks all of the effects of ZAG including decrease in body weight and blood glucose in the tolerance test, also blocking the rise in body temperature and the rise in plasma mouse ZAG, confirming that this occurs through a beta adrenergic receptor. […] It appears to do this by preventing the rise in mouse ZAG in the serum after oral administration of the rhZAG.
Experiment Three (Oral Study): ZAG administered p.o. daily over an extended time frame, with a recovery group split from the treated group beginning at 30 days (data not shown).

Assay [4] relates to ob/ob mice. The assay can be described thus: ob/ob mice treated with ZAG i.v. with or without propanolol. The format is in vivo, mouse. As to conditions: propanolol 40 mg kg−1 po daily. On the procedure: Animals. […] Male mice (about 20 weeks of age) were grouped into three per cage and kept in an air conditioned room at 22±2° C., with ad libitum feeding of a rat and mouse breeding diet (Special Diet Services, Witham, UK) and tap water. Mice were administered ZAG (50 μg, i.v. in 100 μl PBS) or PBS daily with or without propanolol (40 mgkg^−1, po, daily) and body weight and food and water intake were determined, as well as urinary glucose excretion and body temperature, determined by the use of a rectal thermometer (RS Components, Northants, UK). A glucose tolerance test was performed on day 3. […] Blood samples were removed from the tail vein at 15, 30, 60 and 120 min after glucose administration and used for the measurements of glucose and insulin. At the end of the experiment the animals were terminated by cervical dislocation, tissues removed and rapidly frozen in liquid nitrogen, and maintained at −80° C.
To determine whether ZAG can increase insulin signalling the effect on Glut4 expression was determined.

Assay [5] concerns the target T1, β3-AR. Conditions: high affinity binding site; cited from earlier work.

Consider `COc1cccc(-c2cc(=O)c3ccccc3o2)c1N` [PD98059, reference compound], for which the “effect on ZAG-induced expression of phospho HSL” value with adipocytes, BAT is on record as “completely attenuated”.
Take `CCc1ccccc1OC[C@@H](O)CN[C@H]1CCCc2ccccc21` [SR59230A, reference compound]: the “effect on isoprenaline-induced increase in cyclic AMP” value on β3-AR [1] (SR59230A 10 μM) and at human β2-AR was “attenuated” in each case. Also, the “effect on protein degradation stimulated by high glucose” value in the assay on murine myotubes is reported as “attenuated”. In assay [2], the “effect on the lipolytic effect of ZAG” value is given as “completely attenuated”.
Turning to `CC(C)NCC(O)c1ccc(O)c(O)c1` (centres unmarked) [isoprenaline, reference compound], the “cyclic AMP level” value at β3-AR [1] (10 μM) was “significant increases in cyclic AMP level”.
Turning to `CC(C)NCC(O)COc1cccc2ccccc12` (centres unmarked) [propanolol, propranolol], in the assay with ob/ob mice [3], the “effect on weight loss by oral ZAG” value is recorded as “totally attenuates weight loss”. Also, in the assay on ob/ob mice [4], the “effect on ZAG-induced changes in oral glucose tolerance test” value was “blocked the reduction in peak plasma glucose levels” and the “effect on increased body temperature produced by ZAG” value is listed as “completely attenuated”. Further, the “effect on decrease in body weight produced by ZAG” value with ob/ob mice [4] (ZAG 50 μg iv daily) is recorded as “completely attenuated”.

B1: LMF: lipid mobilizing factor of cancer cachexia, shown immunologically identical to ZAG (protein, UniProt P25311 21-298, looked up)
Zinc-alpha-2-glycoprotein: QENQDGRYSLTYIYTGLSKHVEDVPAFQALGSLNDLQFFRYNSKDRKSQPMGLWRQVEGMEDWKQDSQLQKAREDIFMETLKDIVEYYNDSNGSHVLQGRFGCEIENNRSSGAFWKYYYDGKDYIEFNKEIPAWVPFDPAAQITKQKWEAEPVYVQRAKAYLEEECPATLRKYLKYSKNILDRQDPPSVVVTSHQAPGEKKKLKCLAYDFYPGKIDVHWTRAGEVQEPELRGDVLHNGNGTYQSWVVVAVPPQDTAPYSCHVQHSSLAQPLVVPWEAS
For orientation: Kd means the constant that tells how readily two partners part at equilibrium. Consider B1, for which the Kd with β3-AR [5] was 78 ± 4.5 nM.
